Target: T1, human OX2 receptor (Homo sapiens, UniProt O43614)
T1 construct: expressed in transfected cells
T1 sequence (O43614 1-444): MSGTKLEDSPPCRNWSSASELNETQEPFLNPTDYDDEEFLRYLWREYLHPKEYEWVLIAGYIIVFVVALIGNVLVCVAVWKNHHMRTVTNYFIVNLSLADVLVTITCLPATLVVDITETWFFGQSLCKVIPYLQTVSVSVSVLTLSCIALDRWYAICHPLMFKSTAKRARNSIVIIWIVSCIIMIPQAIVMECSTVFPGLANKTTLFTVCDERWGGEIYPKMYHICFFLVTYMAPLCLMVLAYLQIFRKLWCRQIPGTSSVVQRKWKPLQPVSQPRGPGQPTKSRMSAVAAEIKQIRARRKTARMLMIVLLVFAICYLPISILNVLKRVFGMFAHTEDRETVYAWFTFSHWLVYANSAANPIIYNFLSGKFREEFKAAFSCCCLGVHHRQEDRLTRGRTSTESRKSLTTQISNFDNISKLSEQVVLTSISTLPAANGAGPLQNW
Experiment: Measurement of orexin type 2 receptor agonist activity (Experimental Example 2; Fluo-4 AM calcium fluorescence, FDSS μCELL)
Type: cell-based
Details: compound at 3 μM; CHO cells expressing human OX2 receptor; DMSO = 0%, 10 nM orexin A (human) = 100%
Protocol: In order to obtain cell clones that stably express human orexin type 2 receptor, human orexin type 2 (residues 1-444, NCBI Reference Sequence: AK314279) was constructed in a pcDNA3.1 (+) vector (Invitrogen) to express in mammalian cells. This plasmid DNA was transfected into CHO-K1 cells by electroporation, and stable clones were obtained by limiting dilution using resistance to G418 as a selection marker.
CHO cells in which human OX2 receptor was forcibly expressed were seeded at 10,000 cells/well into a 384-well black transparent bottom plate (BD falcon), and were incubated at 37° C., 5% CO2 for 1 day after incubation at room temperature for 30 minutes. After removing the cell plate medium, assay buffer containing calcium indicator A (HBSS (Thermo Fisher Scientific), 20 mM HEPES (Thermo Fisher Scientific), 0.1% BSA (Sigma-Aldrich), 2.5 μg/mL Fluo-4 AM (Dojin Kagaku), 0.08% Pluronic F127 (Dojin Kagaku), 1.25 mM probenecid (Dojin Kagaku)) was added at 30 μL/well. After incubation in a 5% CO2 incubator at 37° C. for 30 minutes, it was incubated at room temperature for another 30 minutes. Add 10 μL/well of the test compound diluted with assay buffer B (HBSS, 20 mM HEPES, 0.1% BSA), and use FDSS μCELL (Hamamatsu Photonics) to measure the fluorescence value every 1 second for 1 minute, and then every 2 seconds for 1 minute. It was measured for 1 minute and 40 seconds. The amount of fluorescence value when DMSO is added instead of the test compound is defined as 0%, and the amount of fluorescence value when orexin A (human) (Peptide Institute) with a final concentration of 10 nM is added is defined as 100%. The activity (%) of the test compound was calculated. Table 2-1, 2-2, 2-3, and 2-4 show the activity of each compound at a concentration of 3 μM.

| Structure (SMILES) | OX2R agonist activity (3 μM, %) [%] |
| --- | --- |
| Cc1ccc2nc1COc1cccc(c1F)C[C@H]1[C@@H](NS(C)(=O)=O)C(F)(F)CN1C(=O)CO2 [Example 66, N-[(16aS,17R)-18,18,21-trifluoro-7-methyl-1-oxo-1,2,16a,17,18,19-hexahydro-9H,16H-4,8-(azeno)-11,15-(metheno)pyrrolo[1,2-d][1,12,4]dioxazacyclo-octadecin-17-yl]methanesulfonamide] | 97 |
| CCS(=O)(=O)N[C@@H]1[C@@H]2Cc3cccc(c3F)Oc3nc(ccc3C)OCC(=O)N2CC1(F)F [Example 45, N-[(15aS,16R)-17,17,20-trifluoro-7-methyl-1-oxo-1,2,15a,16,17,18-hexahydro-15H-4,8-(azeno)-14,10-(metheno)pyrrolo[1,2-d][1,12,4]dioxazacyclo-heptadecin-16-yl]ethanesulfonamide] | 105 |
| CS(=O)(=O)N[C@@H]1[C@@H]2Cc3cccc(c3F)COc3nc(ccc3Cl)CNC(=O)N2CC1(F)F [Example 94, N-[(16aS,17R)-7-chloro-18,18,21-trifluoro-1-oxo-2,3,16a,17,18,19-hexahydro-1H,10H,16H-4,8-(azeno)-15,11-(metheno)pyrrolo[1,2-j][1,8,10]oxadiazacycloocta-decin-17-yl]methanesulfonamide] | 109 |
| Cc1ccc2nc1Oc1cc(ccc1F)C[C@H]1[C@@H](NS(C)(=O)=O)CCN1C(=O)NC2 (relative stereo) [Example 9, N-[rel-(15aR,16R)-11-fluoro-7-methyl-1-oxo-2,3,15a,16,17,18-hexahydro-1H,15H-4,8-(azeno)-10,14-(metheno)pyrrolo[1,2-j][1,8,10]oxadiazacyclo-heptadecin-16-yl]methanesulfonamide (optical isomer)] | 93 |
| CS(=O)(=O)N[C@@H]1[C@@H]2Cc3cccc(c3)Oc3nc(ccc3Cl)CNC(=O)N2CC1(F)F [Example 92, N-[(15aS,16R)-7-chloro-17,17-difluoro-1-oxo-2,3,15a,16,17,18-hexahydro-1H,15H-4,8-(azeno)-14,10-(metheno)pyrrolo[1,2-j][1,8,10]oxadiazacyclohepta-decin-16-yl]methanesulfonamide] | 106 |
| CCS(=O)(=O)N[C@H]1[C@@H](F)CN2C(=O)COc3ncc(C)c(n3)Oc3cccc(c3)C[C@@H]12 [Example 71, N-[(15aS,16R,17S)-17-fluoro-7-methyl-1-oxo-1,2,15a,16,17,18-hexahydro-15H-4,8-(azeno)-10,14-(metheno)pyrrolo[2,1-n][1,7,3,15]dioxadiazacyclo-heptadecin-16-yl]ethanesulfonamide] | 99 |
| Cc1ccc2nc1Oc1cc(ccc1F)C[C@H]1[C@@H](NS(C)(=O)=O)C(F)(F)CN1C(=O)NC2 (relative stereo) [Example 86, N-[rel-(15aS,16R)-11,17,17-trifluoro-7-methyl-1-oxo-2,3,15a,16,17,18-hexahydro-1H,15H-4,8-(azeno)-14,10-(metheno)pyrrolo[1,2-j][1,8,10]oxadiazacyclo-heptadecin-16-yl]methanesulfonamide (optical isomer)] | 102 |
| CCS(=O)(=O)N[C@H]1[C@@H](F)CN2C(=O)NCc3ccc(C)c(n3)Oc3cccc(c3)C[C@@H]12 [Example 42, N-[(15aS,16R,17S)-17-fluoro-7-methyl-1-oxo-2,3,15a,16,17,18-hexahydro-1H,15H-4,8-(azeno)-14,10-(metheno)pyrrolo[1,2-j][1,8,10]oxadiazacyclo-heptadecin-16-yl]ethanesulfonamide] | 101 |
| CS(=O)(=O)N[C@@H]1[C@@H]2Cc3cccc(c3)Oc3nc(ccc3Cl)OCC(=O)N2CC1(F)F [Example 96, N-[(15aS,16R)-7-chloro-17,17-difluoro-1-oxo-1,2,15a,16,17,18-hexahydro-15H-4,8-(azeno)-14,10-(metheno)pyrrolo[1,2-d][1,12,4]dioxazacyclo-heptadecin-16-yl]methanesulfonamide] | 107 |
| CO[C@@H]1C[C@H]2C(=O)N3CC(F)(F)[C@H](NS(C)(=O)=O)[C@@H]3Cc3cccc(c3F)Oc3nc(ncc3C)N2C1 [Example 83, N-[(2R,16aS,17R,21aS)-18,18,22-trifluoro-2-methoxy-8-methyl-21-oxo-2,3,16a,17,18,19,21,21a-octahydro-1H,16H-5,9-(azeno)-11,15-(metheno)dipyrrolo[1,2-g:1′,2′-j][1,5,7,10]oxatriazacyclo-heptadecin-17-yl]methanesulfonamide] | 96 |
| CS(=O)(=O)N[C@@H]1[C@@H]2Cc3cccc(c3F)Oc3nc(c(F)cc3Cl)CNC(=O)N2CC1(F)F [Example 30, N-[(15aS,16R)-7-chloro-5,17,17,20-tetrafluoro-1-oxo-2,3,15a,16,17,18-hexahydro-1H,15H-4,8-(azeno)-14,10-(metheno)pyrrolo[1,2-j][1,8,10]oxadiazacyclo-heptadecin-16-yl]methanesulfonamide] | 102 |
| CCS(=O)(=O)N[C@@H]1[C@@H]2Cc3cccc(c3)Oc3nc(ccc3Cl)CNC(=O)N2CC1(F)F (relative stereo) [Example 53, N-[rel-(15aR,16S)-7-chloro-17,17-difluoro-1-oxo-2,3,15a,16,17,18-hexahydro-1H,15H-4,8-(azeno)-14,10-(metheno)pyrrolo[1,2-j][1,8,10]oxadiazacyclo-heptadecin-16-yl]ethanesulfonamide (optical isomer)] | 100 |
| Cc1cnc2nc1Oc1cccc(c1F)C[C@H]1[C@@H](NS(C)(=O)=O)C(F)(F)CN1C(=O)CN2C [Example 75, N-[(15aS,16R)-17,17,20-trifluoro-3,7-dimethyl-1-oxo-2,3,15a,16,17,18-hexahydro-1H,15H-4,8-(azeno)-10,14-(metheno)pyrrolo[1,2-j][1,5,7,10]oxatriazacyclo-heptadecin-16-yl]methanesulfonamide] | 95 |

Further lines, results first:

| OX2R agonist activity (3 μM, %) [%] | Structure (SMILES) |
| --- | --- |
| 109 | CS(=O)(=O)N[C@@H]1[C@@H]2Cc3cccc(c3F)Oc3nc(ccc3C3CC3)CNC(=O)N2CC1(F)F [Example 88, N-[(15aS,16R)-7-cyclopropyl-17,17,20-trifluoro-1-oxo-2,3,15a,16,17,18-hexahydro-1H,15H-4,8-(azeno)-14,10-(metheno)pyrrolo[1,2-j][1,8,10]oxadiazacyclo-heptadecin-16-yl]methanesulfonamide] |
| 80 | CS(=O)(=O)N[C@H]1[C@@H](F)CN2C(=O)OCc3ccc(C(F)F)c(n3)Oc3cccc(c3F)C[C@@H]12 [Example 38, N-[(15aS,16R,17S)-7-(difluoromethyl)-17,20-difluoro-1-oxo-15a,16,17,18-tetrahydro-1H,3H,15H-8,4-(azeno)-10,14-(metheno)pyrrolo[1,2-c][1,11,3]dioxazacyclo-heptadecin-16-yl]methanesulfonamide] |
| 108 | Cc1ccc2nc1Oc1cccc(c1F)C[C@H]1[C@@H](NS(=O)(=O)C(C)C)C(F)(F)CN1C(=O)NC2 [Example 97, N-[(15aS,16R)-17,17,20-trifluoro-7-methyl-1-oxo-2,3,15a,16,17,18-hexahydro-1H,15H-4,8-(azeno)-14,10-(metheno)pyrrolo[1,2-j][1,8,10]oxadiazacyclo-heptadecin-16-yl]propane-2-sulfonamide] |
| 104 | CCS(=O)(=O)N[C@H]1[C@@H](F)CN2C(=O)NCc3ccc(Cl)c(n3)Oc3cccc(c3F)C[C@@H]12 [Example 24, N-[(15aS,16R,17S)-7-chloro-17,20-difluoro-1-oxo-2,3,15a,16,17,18-hexahydro-1H,15H-4,8-(azeno)-14,10-(metheno)pyrrolo[1,2-j][1,8,10]oxadiazacyclo-heptadecin-16-yl]ethanesulfonamide] |
| 99 | CS(=O)(=O)N[C@@H]1[C@@H]2Cc3cccc(c3F)Oc3nc(ccc3Cl)CNC(=O)N2CC1(F)F [Example 14, N-[(15aS,16R)-7-chloro-17,17,20-trifluoro-1-oxo-2,3,15a,16,17,18-hexahydro-1H,15H-4,8-(azeno)-14,10-(metheno)pyrrolo[1,2-j][1,8,10]oxadiazacyclo-heptadecin-16-yl]methanesulfonamide] |
